# Experimental data published in EP0255420B1, “Antiviral agent for inhibiting growth of virus of acquired immune deficiency syndrome (AIDS)” (priority 1986, dated 1988).
# Where two headings read alike, the source gives them in different places.
# Experiments:
# reverse transcriptase = reverse transcriptase (Human immunodeficiency virus type 1 group M subtype B, UniProt P04585); experiment: Reverse transcriptase assay with disrupted HIV; format: biochemical; parameters: made in house; host or cells: virions from culture supernatants of HIV-producing Molt-4 cells (Molt-4/HIV), disrupted with Triton X-100
# Description: Supernatants of Molt-4/HIV were concentrated 100 times by sucrose gradient ultracentrifugation. The viral pellets were disrupted by addition of suspension buffer containing 5 mM Tris-HCI(pH 8.1), 0.5 M KCI, 0.1 mM dithiothreitol and 0.1 % Triton® X-100. The assay for reverse transcriptase activity was performed at 37°C for 1 h with a 10 0 of the disrupted HIV in a final volume of 50 µl containing 50 mM Tris-HCI(pH 8.4), 2 mM dithiothreitol, 100 mM KCI, 10 mM MgCI, 0.01 % Triton X-100. 1 wCi 3H-thymidine triphosphate (57 Ci/m mol.; Amersham, Buckinghanshire, UK) and 50 gg/ml poly(rA)/oligo(dT)(P-L Biochemicals Inc., Milwaukee, Wis). The reaction was stopped with 5% trichloroacetic acid, and precipitates were collected on glass fibre filters and counted in a liquid scintillation counter (Harada et. al; Virology 146, p.272-281,1985b). The assays were carried out in triplicate.
# herpes simplex virus [1] = settings: cited from earlier work
# VSV = settings: cited from earlier work
# HIV [2] = experiment: Reverse transcriptase activity in culture fluids of HIV infected clone No.8 cells of Molt-4; format: cell-based; settings: 1 mg/ml
# herpes simplex virus [3] = settings: human embryonic fibroblast; cited from earlier work
# HIV particles = experiment: Inactivation of HIV particles by glycyrrhizin (pre-incubation, then plaque assay); format: cell-based; settings: even at 2 mg/ml, 60 min at 37°C
# Description: 0.5 ml of HIV containing plaque forming units was mixed with 0.5 ml of various concentrations of glycyrrhizin in the test tubes and incubated at 37°C.
# After 60 min. incubation 0.1 ml of each mixture was diluted with 19.9 ml of culture medium, and 0.1 ml of the […] diluted virus preparation was added. After adsorption, 1 ml of the agarose overlay medium consisting of RPMI-1640 medium with 10 % fetal calf serum, antibiotics and 0.6 % agarose was poured in. The maximum concentration of the diluted glycyrrhizin in plaque assay medium was 0.01 mg/ml, and this concentration itself reduced about 10 % of HIV induced plaque forming activity in MT-4 cells.
# Varicella-Zoster virus = settings: human embryonic fibroblast; cited from earlier work
# HIV [4] = experiment: Number of HIV in culture fluids of infected clone No.8 cells of Molt-4 (MT-4 cell plaque assay system); format: cell-based; settings: 1 mg/ml
# HIV [5] = experiment: Assay for HIV specific antigen expression in HIV infected MT-4 cells (indirect immunofluorescence); format: cell-based; settings: for percentage of IF-positive cells: day 3 after infection
# HIV [6] = format: cell-based
# Description: HIV was obtained from the culture supernatant of Molt-4/HIV. Titer of virus preparation was 6x10^4 plaque forming units/ml. Infection of MT-4 cells and clone No. 8 cells of Molt-4 with HIV was made at a multiplicity of infectin of 0.002.
# To evaluate the direct effect of glycyrrhizin on the infection of HIV in MT-4 cells, plaque assay using agarose overlay medium with various concentrations of glycyrrhizin was performed. Briefly, in order to fasten MT-4 cells onto culture vessels, 35 mm polystyrene tissue culture dishes were coated with poly-L-lysine (Sigma Chemical Co., St. Louis,Mo) One and half milliliters of 1.50 x 10^6/ml MT-4 cells were dropped onto each poly-L-lysine-coated dish and incubator for 1 hour at room temperature. The dishes were gently washed with phosphate buffered saline to remove unbound cells, 100 p.1 of appropriate diluted virus preparation was slowly added and incubated for 1 hour at room temperature for virus adsorption. After adsorption, 1 ml of the agarose overlay medium consisting of RPMI 1640 medium with 10 % fetal calf serum, antibiotics and 0.6 % agarose (Sea plaque Agarose, Marine Colloid Corp., Rockland, Me) was poured into each dish. The dishes were incubated in a C02 incubator at 37°C for 3 days and 1 ml of agarose overlay medium containing neutral red was added. The dishes were incubated 3 more days and visible plaque were counted. All experiments were carried out in triplicate.
# HIV [7] = experiment: Assay for HIV induced cytopathic effects in HIV infected MT-4 cells (viable cells, trypan blue exclusion); format: cell-based; settings: day 3, multiplicity of infection 0.002
# [8] = tested on: normal pheripleral blood monouclear cells; experiment: 3H-thymidine uptake in normal peripheral blood mononuclear cells (lectin-induced blast formation); format: cell-based; settings: normal lymphocytes, 3 days
# Description: (§1) MT-4 cells were adjusted to 3x10^5 cells/ml in fresh medium and cultured with various concentrations of glycyrrhizin in a 96-flat bottom well microtiter plate for 3 days. 10^6 pheripleral blood monouclear cells were cultured with 1 wg/ml of poly clonal mitogen PHA or concanavalin A various concentrations of glycyrrhizin for 3 days. Cells were incubated with either 1 µCi/well of ^3H-thymidine (20 Ci/m mol.; New Engl.Nuclear, Boston, MA), for the last 18 hours. The cells were harvested on a glassfiber filter paper and counted in a liquid scintillation counter. All experiments were carried out in triplicate.
# HIV [9] = experiment: HIV-specific antigen expression in HIV infected clone No.8 cells of Molt-4 (immunofluorescence); format: cell-based; settings: 1 mg/ml
# [10] = mouse, in vivo, ip
# Acute toxicity, rat = format: in vivo; settings: Oral administration (rat)
# HIV [11] = experiment: Cytopathic effect in HIV infected clone No.8 cells of Molt-4 (viable cells, viability); format: cell-based; settings: 1 mg/ml
# MT-4 cells [12] = experiment: 3H-thymidine uptake in MT-4 cells (DNA synthesis); format: cell-based; settings: 3 days
# Description: as §1
# HIV [13] = experiment: Cell fusion of HIV infected clone No.8 cells of Molt-4; format: cell-based; settings: 1 mg/ml, day 6 and 9
# MT-4 cells [14] = experiment: Growth of MT-4 cells not exposed to virus (viable cell count); format: cell-based; settings: 2 mg/ml
# Source text: • Fig. 1 is a view showing direct effect of glycyrrhizin on HIV induced plaque forming activity in MT-4 cells. Results are the mean of two experiments each performed in triplicate. • Fig. 2 is a view showing inhibition of cytopathic effect of HIV on MT-4 cells by glycyrrhizin. […] Data are from a single experiment, representative of four separate experiments. […] The viable cells were detected by trypan blue exclusion staining method.
structure (smiles),measurement,setting,value
"Cc1cn([C@H]2C[C@H](N=[N+]=[N-])[C@@H](COP(=O)(O)OP(=O)(O)OP(=O)(O)O)O2)c(=O)[nH]c1=O [3' -azido-TIP, 3'-azido-3'-deoxythymidine triphosphate]",inhibition of reverse transcriptase activity,reverse transcriptase; 0.005 mg/ml,97%
CC1(C)[C@@H](O)CC[C@]2(C)[C@H]3C(=O)C=C4[C@@H]5C[C@@](C)(C(=O)O)CC[C@]5(C)CC[C@@]4(C)[C@]3(C)CC[C@@H]12 [glycyrrhetinic acid],replication of herpes simplex virus,herpes simplex virus [1],suppress the replication
same,inactivation of virus particles,herpes simplex virus [1]; herpes simplex virus incubated with compound for 30 min,inactivates the virus particles
same,inactivation of virus particles,VSV; VSV incubated with compound for 30 min,inactivates the virus particles
same,replication of VSV,VSV,suppress the replication
CC1(C)[C@@H](O[C@H]2O[C@H](C(=O)O)[C@@H](O)[C@H](O)[C@H]2O[C@@H]2O[C@H](C(=O)O)[C@@H](O)[C@H](O)[C@H]2O)CC[C@]2(C)[C@H]3C(=O)C=C4[C@@H]5C[C@@](C)(C(=O)O)CC[C@]5(C)CC[C@@]4(C)[C@]3(C)CC[C@@H]12 [glycyrrhizin],RT,"HIV [2]; on day 3, CPM per 10^4 viable cells",1536 cpm
same,RT,"HIV [2]; on day 6, CPM per 10^4 viable cells",5369 cpm
same,RT,"HIV [2]; on day 9, CPM per 10^4 viable cells",4369 cpm
same,ID50 against herpes simplex virus,herpes simplex virus [3],600 µg/mL
same,inactivation of HIV particles,HIV particles,did not inactivate
same,ID50 against Varicella-Zoster virus,Varicella-Zoster virus,580 µg/mL
same,number of HIV,HIV [4]; on day 3,500< pfu/ml
same,number of HIV,HIV [4]; on day 6,500< pfu/ml
same,number of HIV,HIV [4]; on day 9,1000 pfu/ml
same,percentage of IF-positive cells,HIV [5]; 0.005 mg/ml,70.9
same,percentage of IF-positive cells,HIV [5]; 0.05 mg/ml,69.3
same,expression of HIV-specific antigen (in words),HIV [5]; 0.25 mg/ml,significant inhibition
same,percentage of IF-positive cells,HIV [5]; 0.25 mg/ml,23.3
same,expression of HIV-specific antigen (in words),HIV [5]; 0.5 mg/ml,almost completely suppressed
same,percentage of IF-positive cells,HIV [5]; 0.5 mg/ml,1.0
same,expression of HIV-specific antigen (in words),HIV [5]; 1 mg/ml,almost completely suppressed
same,percentage of IF-positive cells,HIV [5]; 1 mg/ml,0.6
same,reduction of HIV induced plaque forming activity in MT-4 cells,HIV [6]; 0.01 mg/ml in plaque assay medium,about 10%
same,suppression of plaque formation,"HIV [6]; 0.05 mg/ml in agarose overlay medium, MT-4 cells",34.2%
same,inhibition of plaque formation,"HIV [6]; 0.5 mg/ml, MT-4 cells",completely inhibited
same,inhibition of plaque formation,"HIV [6]; 1 mg/ml, MT-4 cells",completely inhibited
same,selectivity index (the ratio on the ID50 for host cell DNA synthesis to the average ID50 for HIV),HIV [6]; MT-4 cells,17.2
same,ID50 (plaque formation of HIV),"HIV [6]; MT-4 cells, Fig.1",125 µg/mL
same,growth inhibition of infected cultures as compared with the uninfected MT-4 cells,HIV [7]; 0.25 mg/ml,not significant
same,growth inhibition of infected cultures as compared with the uninfected MT-4 cells,HIV [7]; 0.5 mg/ml,not significant
same,growth inhibition of infected cultures as compared with the uninfected MT-4 cells,HIV [7]; 1 mg/ml,not significant
same,LD5o,"Acute toxicity, mouse; Intravenous injection 2 % aqueous solution (mouse)",682.5 mg/kg
same,LD5o,"Acute toxicity, mouse; Subcutaneous injection 5 % aqueous solution (mouse)",1873.3 mg/kg
same,ID50 on PHA response,[8]; PHA,2100 µg/mL
same,ID50 on concanavalin A response,[8]; concanavalin A,2000 µg/mL
same,IF posivive cells,HIV [9]; on day 6,7.1%
same,IF positive cells,HIV [9]; on day 9,5.8%
same,LD5o,[10],225 to 244 mL/kg
same,inhibition of reverse transcriptase activity of HIV (in words),reverse transcriptase; even at 10 mg/ml,did not inhibit
same,LD5o,"Acute toxicity, rat",3000 mg/kg
same,viability,HIV [11]; on day 3,91.4%
same,viable cells,HIV [11]; on day 3,1.5e+06 mL⁻¹
same,viability,HIV [11]; on day 6,83.4%
same,viable cells,HIV [11]; on day 6,3.4e+06 mL⁻¹
same,viability,HIV [11]; on day 9,84.4%
same,viable cells,HIV [11]; on day 9,7.57e+06 mL⁻¹
same,ID50 for DNA synthesis of uninfected MT-4 cells,MT-4 cells [12],2150 µg/mL
same,fusion on clone No.8 cells of Molt-4,HIV [13],did not occur
same,growth inhibition,MT-4 cells [14],50%
